This is an account of results in US9302999B2, “Substituted triazoles as herbicides” (E. I. DU PONT DE NEMOURS AND COMPANY, priority 2012, dated 2016).

One assay has as its system soybean (Glycine max). In words: Test F pre-/postemergence: soybean. The class given is in vivo. From the text: (§1) Seeds of plant species selected from corn (Zea mays), soybean (Glycine max), velvetleaf (Abutilon theophrasti), lambsquarters (Chenopodium album), poinsettia, wild (wild poinsettia, Euphorbia heterophylla), pigweed, palmer (palmer pigweed, Amaranthus palmeri), waterhemp (common waterhemp, Amaranthus rudis), surinam grass (Brachiaria decumbens), crabgrass, Brazil (Brazilian crabgrass, Digitaria horizontalis), panicum, fall (fall panicum Panicum dichotomiflorum), crabgrass, large (large crabgrass, Digitaria sanguinalis), foxtail, giant (giant foxtail, Setaria faberii), foxtail, green (green foxtail Setaria viridis), goosegrass (Eleusine indica), ragweed (common ragweed, Ambrosia elatior), barnyardgrass (Echinochloa crus-galli), sandbur (southern sandbur, Cenchrus echinatus), arrowleaf sida (Sida rhombifolia), ryegrass, Italian (Italian ryegrass, Lolium multiflorum), dayflower, VA (Virginia (VA) dayflower, Commelina virginica), field bindweed (Convolvulus arvensis), cocklebur (common cocklebur, Xanthium strumarium), morningglory (Ipomoea coccinea), nightshade (eastern black nightshade, Solanum ptycanthum), kochia (Kochia scoparia), nutsedge, yellow (yellow nutsedge, Cyperus esculentus), johnsongrass (Sorghum halepense), smartweed (ladysthumb smartweed, Polygonum persicaria), and beggarticks (hairy beggarticks, Bidens pilosa), were planted into a silt loam soil and treated preemergence with test chemicals formulated in a non-phytotoxic solvent mixture which included a surfactant. At the same time, plants selected from these crop and weed species and also pigweed (Amaranthus retroflexus), waterhemp_RES1 (ALS/Triazine resistant common waterhemp, Amaranthus rudis) and waterhemp_RES2 (ALS/HPPD resistant common waterhemp, Amaranthus rudis) were planted in pots containing a planting medium comprising spaghnum peat moss, vermiculite, wetting agent and starter nutrients treated with postemergence applications of some of the test chemicals formulated in the same manner. Plants ranged in height from 2 to 18 cm for postemergence treatments (1- to 4-leaf stage).
(§2) Treated plants and controls were maintained in a greenhouse for 14 to 21 days, after which time all species were compared to controls and visually evaluated. Plant response ratings, summarized in Table E, are based on a scale of 0 to 100 where 0 is no effect and 100 is complete control. A dash (-) response means no test result.

The subject of assay [1] is johnsongrass (Sorghum halepense). In words: Test F pre-/postemergence: johnsongrass. The class given is in vivo. To be noted: Preemergence.
Description: as §1, §2

Assay [2] has as its system Oilseed Rape. In words: Test C postemergence: oilseed rape. The class given is in vivo. The source says: (§3) At the same time, plants selected from these crop and weed species and also barley (winter barley, Hordeum vulgare), canarygrass (Phalaris minor), chickweed (common chickweed, Stellaria media) windgrass (Apera spica-venti) and deadnettle (henbit deadnettle, Lamium amplexicaule) were planted in pots containing Redi-Earth® planting medium (Scotts Company, 14111 Scottslawn Road, Marysville, Ohio 43041) comprising spaghnum peat moss, vermiculite, wetting agent and starter nutrients and treated with postemergence applications of test chemicals formulated in the same manner. Plants ranged in height from 2 to 18 cm (1- to 4-leaf stage) for postemergence treatments.
(§4) Treated plants and controls were maintained in a greenhouse for 13 to 15 days, after which time all species were compared to controls and visually evaluated. Plant response ratings, summarized in Table C, are based on a scale of 0 to 100 where 0 is no effect and 100 is complete control. A dash (-) response means no test result.

The test system of assay [3] is Waterhemp. As to the kind of experiment: Test C postemergence: waterhemp. The class given is in vivo, Amaranthus rudis.
Description: (§5) Seeds of plant species selected from blackgrass (Alopecurus myosuroides), bromegrass, downy (downy bromegrass, Bromus tectorum), foxtail, green (green foxtail, Setaria viridis), ryegrass, Italian (Italian ryegrass, Lolium multiflorum), winter wheat (Triticum aestivum), wild oat (Avena fatua), galium (catchweed bedstraw, Galium aparine), bermudagrass (Cynodon dactylon), surinam grass (Brachiaria decumbens), cocklebur (common cocklebur, Xanthium strumarium), corn (Zea mays), large crabgrass (Digitaria sanguinalis), woolly cupgrass (Eriochloa villosa), foxtail, giant (giant foxtail, Setaria faberii), goosegrass (Eleusine indica), johnsongrass (Sorghum halepense), kochia (Kochia scoparia), lambsquarters (Chenopodium album), morningglory (Ipomoea coccinea), nightshade (eastern black nightshade, Solanum ptycanthum), nutsedge, yellow (yellow nutsedge, Cyperus esculentus), pigweed (Amaranthus retroflexus), ragweed (common ragweed, Ambrosia elation), soybean (Glycine max), common (oilseed) sunflower (Helianthus annuus), Russian thistle (Salsola kali) and velvetleaf (Abutilon theophrasti) were planted into a blend of loam soil and sand and treated preemergence with test chemicals formulated in a non-phytotoxic solvent mixture which included a surfactant.
as §3, §4

Another assay deals with Barnyardgrass. In words: Test C preemergence: barnyardgrass. The class given is in vivo, Echinochloa crus-galli.
Description: as §5, §4

Assay [4] concerns Oilseed Rape. As to the kind of experiment: Test C preemergence: oilseed rape. The class given is in vivo, Brassica napus. The conditions noted are these: 125 g ai/ha, scale 0 to 100, 0 no effect, 100 complete control.
Assay [5] deals with Waterhemp. In words: Test C preemergence: waterhemp. The class given is in vivo. The conditions noted are these: 62 g ai/ha, scale of 0 to 100, 0 is no effect, 100 is complete control.
Description: as §5, §4

The mark [6] stands for this setting: Preemergence, 16 g ai/ha, scale 0 to 100 (0 no effect, 100 complete control).
Setting [7] is: Preemergence, 31 g ai/ha, scale 0 to 100 (0 no effect, 100 complete control).
Where [8] appears, read: Preemergence, 125 g ai/ha, scale 0 to 100.
Where [9] appears, read: 16 g ai/ha, scale 0 to 100 (0 no effect, 100 complete control).
[10] abbreviates: 31 g ai/ha, scale 0 to 100 (0 no effect, 100 complete control).
The mark [11] stands for this setting: Postemergence, 8 g ai/ha, scale 0 to 100.
Setting [12] is: Postemergence, 16 g ai/ha, scale 0 to 100.
The mark [13] stands for this setting: Postemergence, 31 g ai/ha, scale 0 to 100.
Setting [14] is: Postemergence, 62 g ai/ha, scale 0 to 100.
[15] abbreviates: 62 g ai/ha, scale 0 to 100 (0 no effect, 100 complete control).
Where [16] appears, read: 125 g ai/ha, scale 0 to 100, 0 no effect, 100 complete control.
Where [17] appears, read: 31 g ai/ha, scale of 0 to 100, 0 is no effect, 100 is complete control.
The mark [18] stands for this setting: 62 g ai/ha, scale of 0 to 100, 0 is no effect, 100 is complete control.
Setting [19] is: 31 g ai/ha, scale 0 (no effect) to 100 (complete control).

In the case of `Fc1ccc(-n2nc(Cc3ccnc(C(F)(F)F)c3)c(OCC(F)(F)F)n2)cc1` [Compound 142], the results for the “Plant response rating, Soybean” value in the assay on soybean (Glycine max) (setting [6]), in the assay on soybean (Glycine max) (setting [7]) and in the assay with soybean (Glycine max) (setting [8]) were 0, 0 and 25, respectively. In addition, the “Plant response rating, Johnsongrass” value in assay [1] (setting [9]) was 0; in assay [1] (setting [10]), 5; in assay [1] (125 g ai/ha, scale 0 to 100) it was 30.
For `Cc1nn(-c2ccc(C(F)(F)F)c(F)c2)nc1Cc1ccnc(C(F)(F)F)c1` [Compound 162], the “Plant response rating, Soybean” value in the assay with soybean (Glycine max) (Postemergence, 4 g ai/ha, scale 0 to 100) was 20; in the assay on soybean (Glycine max) (setting [11]) it was 30; in the assay with soybean (Glycine max) (setting [12]), 30; with soybean (Glycine max) (setting [13]), 45; in the assay on soybean (Glycine max) (setting [14]) it was 55; in the assay on soybean (Glycine max) (Preemergence, 4 g ai/ha, scale 0 to 100, 0 no effect, 100 complete control), 0. For the same molecule, the “Plant response rating, Soybean” value is on record as 0 with soybean (Glycine max) (Preemergence, 8 g ai/ha, scale 0 to 100, 0 no effect, 100 complete control); 0 in the assay on soybean (Glycine max) (setting [6]); 25 in the assay on soybean (Glycine max) (setting [7]). The “Plant response rating, Johnsongrass” value is on record as 20 in assay [1] (4 g ai/ha, scale 0 to 100, 0 no effect, 100 complete control); 20 in assay [1] (8 g ai/ha, scale 0 to 100, 0 no effect, 100 complete control); 20 in assay [1] (setting [9]); 20 in assay [1] (setting [10]); 20 in assay [1] (62 g ai/ha, scale 0 to 100). Moreover, the “Plant response rating, Oilseed Rape” value in the assay on Oilseed Rape [2] (setting [10]) is listed as 90; in the assay on Oilseed Rape [2] (setting [15]), 90; with Oilseed Rape [2] (250 g ai/ha, scale 0 to 100), 95; in the assay on Oilseed Rape [4], 100. Besides, the “Plant response rating, Waterhemp” value in the assay with Waterhemp [3] (setting [16]) and with Waterhemp [5] was 100 throughout. Also, the entries for the “Plant response rating, Barnyardgrass” value in the assay on Barnyardgrass (setting [17]), with Barnyardgrass (setting [18]) and with Barnyardgrass (setting [16]) were 98, 100 and 100, respectively.
Turning to `CCOc1nn(-c2ccc(Br)cc2)nc1Cc1ccnc(C(F)(F)F)c1` [Compound 189], the “Plant response rating, Barnyardgrass” value in the assay on Barnyardgrass (16 g ai/ha, scale 0 (no effect) to 100 (complete control)) was 25; in the assay on Barnyardgrass (setting [19]), 45; with Barnyardgrass (setting [18]) it was 98; in the assay on Barnyardgrass (setting [16]), 100. Moreover, the “Plant response rating, Oilseed Rape” value in the assay with Oilseed Rape [4] is reported as 85. In addition, the “Plant response rating, Waterhemp” value in the assay with Waterhemp [5] amounted to 100.
With `CCc1nn(-c2ccc(F)cc2)nc1Oc1ccnc(C(F)(F)F)c1` [Compound 166], the “Plant response rating, Oilseed Rape” value is 5 in the assay with Oilseed Rape [2] (setting [15]); 40 in the assay with Oilseed Rape [2] (250 g ai/ha, scale 0 to 100); 90 with Oilseed Rape [4]. Further, the entries for the “Plant response rating, Waterhemp” value in the assay on Waterhemp [3] (setting [16]) and with Waterhemp [5] were 98 and 100, respectively. Besides, the results for the “Plant response rating, Barnyardgrass” value in the assay on Barnyardgrass (setting [19]), with Barnyardgrass (setting [18]) and with Barnyardgrass (setting [16]) were 5, 75 and 98, respectively.
As to `CCCc1nn(-c2ccc(C(F)(F)F)c(F)c2)nc1Oc1ccnc(C(F)(F)F)c1` [Compound 185], the “Plant response rating, Oilseed Rape” value is 50 in the assay with Oilseed Rape [2] (setting [15]) and 100 in the assay on Oilseed Rape [4]. Also, the “Plant response rating, Waterhemp” value amounted to 95 in the assay on Waterhemp [3] (setting [16]) and 100 in the assay with Waterhemp [3] (250 g ai/ha, scale 0 to 100 (0 no effect, 100 complete control)). For the same molecule, the “Plant response rating, Barnyardgrass” value in the assay with Barnyardgrass (setting [19]) came out at 55; in the assay on Barnyardgrass (setting [18]), 98; in the assay on Barnyardgrass (setting [16]), 100.
In the case of `Cc1nn(-c2ccc(F)c(F)c2)nc1Oc1ccnc(C(F)(F)F)c1` [Compound 145], the “Plant response rating, Soybean” value in the assay on soybean (Glycine max) (setting [11]) was determined as 25; with soybean (Glycine max) (setting [12]) it was 35; with soybean (Glycine max) (setting [13]) it was 40; in the assay with soybean (Glycine max) (setting [14]), 50; in the assay with soybean (Glycine max) (Postemergence, 125 g ai/ha, scale 0 to 100) it was 60.
In the case of `CCCc1nn(-c2ccc(F)cc2)nc1Cc1ccnc(C(F)(F)F)c1` [Compound 153], the “Plant response rating, Soybean” value in the assay on soybean (Glycine max) (setting [6]) was 0; in the assay with soybean (Glycine max) (setting [7]) it was 0; with soybean (Glycine max) (setting [8]) it was 5; in the assay with soybean (Glycine max) (Preemergence, 250 g ai/ha, scale 0 to 100) it was 25. For the same molecule, the “Plant response rating, Johnsongrass” value in assay [1] (setting [9]) came to 0; in assay [1] (setting [10]), 10; in assay [1] (62 g ai/ha, scale 0 to 100) it was 50; in assay [1] (125 g ai/ha, scale 0 to 100) it was 100; in assay [1] (250 g ai/ha, scale 0 to 100), 100. The “Plant response rating, Oilseed Rape” value with Oilseed Rape [2] (setting [10]) is listed as 90; in the assay with Oilseed Rape [2] (setting [15]), 90; in the assay with Oilseed Rape [2] (250 g ai/ha, scale 0 to 100), 95; in the assay with Oilseed Rape [4] it was 98. The figures for the “Plant response rating, Waterhemp” value in the assay on Waterhemp [3] (setting [16]) and in the assay on Waterhemp [5] were 98 and 100, respectively. In addition, the “Plant response rating, Barnyardgrass” value in the assay on Barnyardgrass (setting [17]) is listed as 90; in the assay on Barnyardgrass (setting [18]) it was 90; in the assay on Barnyardgrass (setting [16]), 100.
